From patent US12459922B2 (Gilead Sciences, Inc., priority 2022, dated 2025)
pEC50: −log10 of the molar value.

The compounds below were run on endogenous cellular STAT1 (phosphorylated at Tyr701) in NCI-H1373 cells (assay: Phospho-STAT1 (Tyr701) LANCE Ultra TR-FRET Detection Assay). Details: Homo sapiens, NCI-H1373, 48 h, phospho-STAT1 (Tyr701) induction, read-out: NH1373 pSTAT1 EC50.
Assay type: cell-based
Method: Phospho-STAT1 (Tyr701 LANCE Ultra TR-FRET Detection Assay
d. LANCE Ultra phospho-STAT1 (Tyr701) kits are designed for the detection of phosphorylated STAT1 in cell lysates using a simple, homogeneous LANCE Ultra sandwich assay (Cat. #TRF4028M). This assay is intended for assessing compound induction of endogenous levels of cellular STAT1 (phosphorylated at Tyr701) in NCI-H1373 cells. The NCI-H1373 cells are cultured in RPMI 1640 media containing 10% heat inactivated FBS, GlutaMAX, 1% Penicillin-Streptomycin. An Echo acoustic liquid handler is used to transfer 60 nanoliters of compound dilutions using the Echo Qualified, 384-well polypropylene microplate clear flat bottom source plates into a Greiner (#781080) cell culture microplate. NCI-H1373 cells are seeded into these compound-spotted culture plates at 30,000 cells/well in a 60 uL volume in growth media. The plates are incubated in a 5% CO2 humidified incubator at 37° C. for 48 hours. […] After spinning the plate down at 300 rpm for 1 min, the plate is read on an EnVision plate reader set up for Eu3+ Cryptate and fluorescence emission is measured at two different wavelengths (665 nm and 620 nm). The HTRF ratio is then calculated […] for each well to determine the amount of pSTAT1 in the cell lysate, and the data is then normalized to 10 uM GS-1154611 positive and DMSO negative controls.

| pEC50 | SMILES |
| --- | --- |
| 6.35 | O=c1[nH]ncc(N[C@H]2CCCC[C@H]2CCn2ccc3cc(-c4ncc(C(F)(F)F)cn4)c(F)cc3c2=O)c1C(F)(F)F (racemic) [Example 436, (rac)-7-fluoro-2-(2-((1S,2S)-2-((6-oxo-5-(trifluoromethyl)-1,6-dihydropyridazin-4-yl)amino)cyclohexyl)ethyl)-6-(5-(trifluoromethyl)pyrimidin-2-yl)isoquinolin-1(2H)-one] |
| 6.99 | O=c1[nH]ncc(N[C@H]2CCC[C@H]2CCn2ccc3cc(-c4ncc(C(F)(F)F)cn4)c(F)cc3c2=O)c1C(F)(F)F (racemic) [Example 437, (rac)-7-fluoro-2-(2-((1S,2S)-2-((6-oxo-5-(trifluoromethyl)-1,6-dihydropyridazin-4-yl)amino)cyclopentyl)ethyl)-6-(5-(trifluoromethyl)pyrimidin-2-yl)isoquinolin-1(2H)-one] |
| 6.41 | Nc1nc(-c2cc3ccn(CC[C@H]4COC[C@@H]4Nc4cn[nH]c(=O)c4C(F)(F)F)c(=O)c3cc2F)ncc1C(F)(F)F (racemic) [Example 441, (rac) 6-(4-amino-5-(trifluoromethyl)pyrimidin-2-yl)-7-fluoro-2-(2-((3R,4R)-4-((6-oxo-5-(trifluoromethyl)-1,6-dihydropyridazin-4-yl)amino)tetrahydrofuran-3-yl)ethyl)isoquinolin-1(2H)-one] |
| 6.40 | O=c1[nH]ncc(N2CC[C@@H]2CCCn2ccc3cc(-c4ncc(C(F)(F)F)cn4)c(F)cc3c2=O)c1C(F)(F)F (single isomer, unassigned) [Example 148] |
| 8.40 | O=c1[nH]ncc(N2CC[C@H]2CCCn2ccc3cc(-c4ncc(C(F)(F)F)cn4)c(F)cc3c2=O)c1C(F)(F)F (single isomer, unassigned) [Example 149] |
| 9.29 | O=c1[nH]ncc(N2CC[C@H]2CCCn2cnc3cc(-c4ncc(C(F)(F)F)cn4)c(F)cc3c2=O)c1C(F)(F)F (single isomer, unassigned) [Example 152] |
| 7.08 | C[C@@H](C[C@H](O)Cn1ccc2cc(-c3ncc(C(F)(F)F)cn3)c(F)cc2c1=O)Nc1cn[nH]c(=O)c1C(F)(F)F (single isomer, unassigned) [Example 479] |
| 8.38 | C[C@@H](C[C@@H](O)Cn1ccc2cc(-c3ncc(C(F)(F)F)cn3)c(F)cc2c1=O)Nc1cn[nH]c(=O)c1C(F)(F)F (single isomer, unassigned) [Example 480] |
| 5.00 | C[C@H](Nc1cn[nH]c(=O)c1C(F)(F)F)[C@@H]1C[C@H]1Cn1ccc2cc(-c3ncc(C(F)(F)F)cn3)c(F)cc2c1=O [Example 68, 7-fluoro-2-[[(1R,2R)-2-[(1S)-1-[[6-oxo-5-(trifluoromethyl)-1H-pyridazin-4-yl]amino]ethyl]cyclopropyl]methyl]-6-[5-(trifluoromethyl)pyrimidin-2-yl]isoquinolin-1-one] |
| 6.83 | C[C@@H](CCCn1ccc2cc(-c3ncc(N4CC(O)(C(F)(F)F)C4)cn3)c(F)cc2c1=O)Nc1cn[nH]c(=O)c1C(F)(F)F [Example 69, 7-fluoro-6-[5-[3-hydroxy-3-(trifluoromethyl)azetidin-1-yl]pyrimidin-2-yl]-2-[(4S)-4-[[6-oxo-5-(trifluoromethyl)-1H-pyridazin-4-yl]amino]pentyl]isoquinolin-1-one] |
| 8.23 | O=c1[nH]ncc(N2CCC2CCCn2ccc3cc(-c4ncc(C(F)(F)F)cn4)c(F)cc3c2=O)c1C(F)(F)F (stereo not shown) [Example 72, 7-fluoro-2-[3-[1-[6-oxo-5-(trifluoromethyl)-1H-pyridazin-4-yl]azetidin-2-yl]propyl]-6-[5-(trifluoromethyl)pyrimidin-2-yl]isoquinolin-1-one] |
| 6.13 | CC(C)(O)[C@@H](CCCn1ccc2cc(-c3ncc(C(F)(F)F)cn3)c(F)cc2c1=O)Nc1cn[nH]c(=O)c1C(F)(F)F [Example 73, 7-fluoro-2-[(4R)-5-hydroxy-5-methyl-4-[[6-oxo-5-(trifluoromethyl)-1H-pyridazin-4-yl]amino]hexyl]-6-[5-(trifluoromethyl)pyrimidin-2-yl]isoquinolin-1-one] |
| 7.19 | C[C@@H](CCCn1ccc2cc(-c3ncc(C(C)(C)O)cn3)c(F)cc2c1=O)Nc1cn[nH]c(=O)c1C(F)(F)F [Example 74, 7-fluoro-6-[5-(1-hydroxy-1-methyl-ethyl)pyrimidin-2-yl]-2-[(4S)-4-[[6-oxo-5-(trifluoromethyl)-1H-pyridazin-4-yl]amino]pentyl]isoquinolin-1-one] |

The next lines start with the compound.

| SMILES | pEC50 |
| --- | --- |
| C[C@H](CCCn1ccc2cc(-c3ccc(C(F)(F)F)cn3)ccc2c1=O)Nc1cn[nH]c(=O)c1C(F)(F)F (single isomer, unassigned) [Example 2] | 5.00 |
| C[C@@H](CCCn1ccc2cc(-c3ccc(C(F)(F)F)cn3)ccc2c1=O)Nc1cn[nH]c(=O)c1C(F)(F)F (single isomer, unassigned) [Example 3] | 6.97 |
| [2H][C@@](C)(CCCn1ccc2cc(-c3ncc(C(F)(F)F)cn3)c(F)c(F)c2c1=O)Nc1cn[nH]c(=O)c1C(F)(F)F (single isomer, unassigned) [Example 86] | 8.04 |
| [2H][C@](C)(CCCn1ccc2cc(-c3ncc(C(F)(F)F)cn3)c(F)c(F)c2c1=O)Nc1cn[nH]c(=O)c1C(F)(F)F (single isomer, unassigned) [Example 87] | 5.00 |
| O=c1[nH]ncc(N2CC[C@@H]2CCCn2cnc3cc(-c4ncc(C(F)(F)F)cn4)c(F)cc3c2=O)c1C(F)(F)F (single isomer, unassigned) [Example 151] | 7.23 |
| CC(CCCn1ccc2cc(-c3ccc(C(F)(F)F)cn3)ccc2c1=O)Nc1cn[nH]c(=O)c1C(F)(F)F (stereo not shown) [Example 1, 2-(4-((6-oxo-5-(trifluoromethyl)-1,6-dihydropyridazin-4-yl)amino)pentyl)-6-(5-(trifluoromethyl)pyridin-2-yl)isoquinolin-1(2H)-one] | 7.01 |
| C[C@@H](CCCn1ccc2cc(-c3ccc(C(F)F)cn3)c(F)c(F)c2c1=O)Nc1cn[nH]c(=O)c1C(F)(F)F [Example 51, (S)-6-(5-(difluoromethyl)pyridin-2-yl)-7,8-difluoro-2-(4-((6-oxo-5-(trifluoromethyl)-1,6-dihydropyridazin-4-yl)amino)pentyl)isoquinolin-1(2H)-one] | 7.35 |
| C[C@@H](CCCn1cnc2cc(-c3ncc4cc[nH]c4n3)c(F)cc2c1=O)Nc1cn[nH]c(=O)c1C(F)(F)F [Example 62, 6-fluoro-3-[(4S)-4-[[6-oxo-5-(trifluoromethyl)-1H-pyridazin-4-yl]amino]pentyl]-7-(7H-pyrrolo[2,3-d]pyrimidin-2-yl)quinazolin-4-one] | 7.50 |
| Cc1c[nH]c2nc(-c3cc4ncn(CCC[C@H](C)Nc5cn[nH]c(=O)c5C(F)(F)F)c(=O)c4cc3F)ncc12 [Example 63, 6-fluoro-7-(5-methyl-7H-pyrrolo[2,3-d]pyrimidin-2-yl)-3-[(4S)-4-[[6-oxo-5-(trifluoromethyl)-1H-pyridazin-4-yl]amino]pentyl]quinazolin-4-one] | 8.15 |
| C[C@@H](CCCn1cnc2cc(-c3ncc4c(F)c[nH]c4n3)c(F)cc2c1=O)Nc1cn[nH]c(=O)c1C(F)(F)F [Example 64, 6-fluoro-7-(5-fluoro-7H-pyrrolo[2,3-d]pyrimidin-2-yl)-3-[(4S)-4-[[6-oxo-5-(trifluoromethyl)-1H-pyridazin-4-yl]amino]pentyl]quinazolin-4-one] | 7.43 |
| C[C@@H](CCCn1cnc2cc(-c3ncc(C4CC4)c(N)n3)c(F)cc2c1=O)Nc1cn[nH]c(=O)c1C(F)(F)F [Example 65, 7-(4-amino-5-cyclopropyl-pyrimidin-2-yl)-6-fluoro-3-[(4S)-4-[[6-oxo-5-(trifluoromethyl)-1H-pyridazin-4-yl]amino]pentyl]quinazolin-4-one] | 7.54 |
| COc1cnc(-c2cc3ncn(CCC[C@H](C)Nc4cn[nH]c(=O)c4C(F)(F)F)c(=O)c3cc2F)nc1N [Example 66, 7-(4-amino-5-methoxy-pyrimidin-2-yl)-6-fluoro-3-[(4S)-4-[[6-oxo-5-(trifluoromethyl)-1H-pyridazin-4-yl]amino]pentyl]quinazolin-4-one] | 7.15 |
| C[C@@H](CCCn1cnc2cc(-c3ncc(F)c(N)n3)c(F)cc2c1=O)Nc1cn[nH]c(=O)c1C(F)(F)F [Example 67, 7-(4-amino-5-fluoro-pyrimidin-2-yl)-6-fluoro-3-[(4S)-4-[[6-oxo-5-(trifluoromethyl)-1H-pyridazin-4-yl]amino]pentyl]quinazolin-4-one] | 6.66 |
| CC[C@@H](CCCn1ccc2cc(-c3ncc(C#N)c(N)n3)c(F)cc2c1=O)Nc1cn[nH]c(=O)c1C(F)(F)F [Example 70, 4-amino-2-[7-fluoro-1-oxo-2-[(4S)-4-[[6-oxo-5-(trifluoromethyl)-1H-pyridazin-4-yl]amino]hexyl]-6-isoquinolyl]pyrimidine-5-carbonitrile] | 7.66 |
| CC[C@@H](CCCn1ccc2cc(-c3ncc(C(F)(F)F)c(N)n3)c(F)cc2c1=O)Nc1cn[nH]c(=O)c1C(F)(F)F [Example 71, 6-[4-amino-5-(trifluoromethyl)pyrimidin-2-yl]-7-fluoro-2-[(4S)-4-[[6-oxo-5-(trifluoromethyl)-1H-pyridazin-4-yl]amino]hexyl]isoquinolin-1-one] | 8.23 |
